Results: PubChem BioAssay (NCI)
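96-well plates; 48 h exposure; 5 concentrations. Endpoints by linear interpolation between flanking doses. Not reached: highest tested concentration assigned. GI50: concentration for 50% inhibition of growth. The concentration for full growth arrest is given as TGI.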

Experiments:
Experiment in all cases: NCI tumour cell line growth inhibition, 48 h
SF-539 CNS = test system: SF-539 CNS
M14 melanoma = test system: M14 melanoma
SK-MEL-28 melanoma = test system: SK-MEL-28 melanoma
RXF 393 renal = test system: RXF 393 renal
NCI-H23 lung = test system: NCI-H23 lung
OVCAR-3 ovarian = test system: OVCAR-3 ovarian
OVCAR-5 ovarian = test system: OVCAR-5 ovarian
CAKI-1 renal = test system: CAKI-1 renal
SNB-75 CNS = test system: SNB-75 CNS
HOP-92 NSCLC = test system: HOP-92 NSCLC

Structure (SMILES)	TGI (SF-539 CNS)	TGI (M14 melanoma)	TGI (SK-MEL-28 melanoma)	TGI (RXF 393 renal)	TGI (NCI-H23 lung)	TGI (OVCAR-3 ovarian)	TGI (OVCAR-5 ovarian)	TGI (CAKI-1 renal)	TGI (SNB-75 CNS)	GI50 (SNB-75 CNS)	GI50 (SF-539 CNS)	GI50 (M14 melanoma)	GI50 (SK-MEL-28 melanoma)	GI50 (RXF 393 renal)	GI50 (NCI-H23 lung)	GI50 (OVCAR-3 ovarian)	GI50 (OVCAR-5 ovarian)	GI50 (CAKI-1 renal)	GI50 (HOP-92 NSCLC)	TGI (HOP-92 NSCLC)
CC(=O)c1sc(-c2nc(C)c(C(=O)/C=C\c3ccc(/C=C\C(=O)c4sc(-c5nc(C)c(C(C)=O)s5)nc4C)cc3)s2)nc1C	> 100 µM	> 100 µM	> 100 µM	> 100 µM	> 100 µM	> 100 µM	> 100 µM	> 100 µM												
COC(=O)/C(C#N)=C1\CCC(O)N1 (stereo not given)	> 100 µM	> 100 µM	> 100 µM	> 100 µM	> 100 µM	> 100 µM	> 100 µM	> 100 µM	> 100 µM											
CCc1ccccc1NC(=O)c1sc2nc3c(cc2c1N)C(=O)CCC3	3.15 µM	> 100 µM	> 100 µM	0.852 µM	> 100 µM	16 µM	> 100 µM	> 100 µM	55.1 µM	0.346 µM	0.373 µM	0.404 µM	3.71 µM	0.191 µM	0.711 µM	0.383 µM	1.96 µM	0.504 µM		
O=c1[nH]cnc2cccc(Cl)c12	> 100 µM	> 100 µM	> 100 µM	> 100 µM	> 100 µM	> 100 µM	> 100 µM	> 100 µM	> 100 µM											
C=C1C[C@]23CCC4C(C)(C)C(=O)CC[C@]4(C)C2C[C@H]1C(O)C3=O (stereo not given in full)	> 75 µM	> 75 µM	> 75 µM	> 75 µM	> 75 µM	> 75 µM			> 75 µM											
O=C(CSC(c1ccccc1)c1ccccc1)N/N=C/c1ccc(Cl)cc1Cl	> 100 µM	87.2 µM		89.1 µM	56.9 µM	83 µM	> 100 µM	83 µM			57.7 µM	29.2 µM		34.4 µM	21.4 µM	29.2 µM	31.6 µM	38.3 µM	31.1 µM	83.4 µM
CCCCOC(=O)NC(=O)c1cn(CCCOC(=O)NCCCCCCNC(=O)OCCCn2cc(C(=O)NC(=O)OCCCC)c(=O)[nH]c2=O)c(=O)[nH]c1=O	> 100 µM	> 100 µM	> 100 µM	> 100 µM	> 100 µM	> 100 µM	> 100 µM		> 100 µM											> 100 µM
Cc1cc[c-]cc1.Fc1c[c-]c(-c2ccccn2)c(F)c1.[Pt+2].c1ccc(P(C[PH+](c2ccccc2)c2ccccc2)c2ccccc2)cc1	12.4 µM	13.7 µM	10.3 µM	8.64 µM	8.67 µM	10.6 µM	11.9 µM	9.03 µM			3.34 µM	2.91 µM	2.86 µM	2.45 µM	2.21 µM	1.72 µM	2.99 µM	2.43 µM	1.57 µM	4.97 µM
O=C1CC2C(=O)N(Cc3ccccc3)C1C=C2S(=O)(=O)c1ccccc1 (stereo not given)	> 100 µM	> 100 µM	> 100 µM	> 100 µM	> 100 µM	> 100 µM			> 100 µM											> 100 µM
Nc1ccn(C2(CO)C=C(CO)C(O)C2O)c(=O)n1 (stereo not given)	> 25.8 µM	> 25.8 µM	> 25.8 µM	> 25.8 µM		> 25.8 µM		> 25.8 µM	> 25.8 µM											
CC(=O)/C=C/c1ccc(C#Cc2ccccc2)s1	31 µM	29.1 µM	28.8 µM	33 µM	27.4 µM	29.6 µM	29.7 µM	36.2 µM			17.3 µM	15.7 µM	15.5 µM	16.2 µM	14.4 µM	15.5 µM	15.9 µM	19.3 µM		
Cc1cc(NS(=O)(=O)c2ccc(Nc3c4ccccc4nc4c(C(=O)NCCN(C)C)cccc34)cc2)no1	15.2 µM	> 100 µM	48.8 µM	22.8 µM	> 100 µM		> 100 µM		21 µM											
COc1cccc(-n2c3nc(=O)n(C)c(=O)c-3nc3ccccc32)c1	27.8 µM	27.7 µM	61.4 µM		62 µM	8.8 µM	37.2 µM	> 100 µM	76.2 µM											72.5 µM
N.N.N.N.[Cl-].[Co+3].[N-]=[N+]=[N-].[N-]=[N+]=[N-]	> 100 µM	> 100 µM	> 100 µM		> 100 µM	> 100 µM	> 100 µM		> 100 µM	> 100 µM	48.8 µM	> 100 µM	60.3 µM		> 100 µM	> 100 µM	> 100 µM		> 100 µM	> 100 µM
NC(N)=NCCCCCNc1noc(Cc2c[nH]c3cc(Br)ccc23)n1	29.5 µM	44.3 µM	36.7 µM	> 100 µM	28.7 µM	33.5 µM	> 100 µM	> 100 µM			12.5 µM	10.8 µM	16.3 µM	20.2 µM	8.2 µM	4.4 µM	24.9 µM	66.7 µM	2.96 µM	46.7 µM
CCOC(=N)CC(=O)Nc1cccc(C)c1C	> 100 µM	> 100 µM	> 100 µM	> 100 µM	> 100 µM	> 100 µM	> 100 µM	> 100 µM	> 100 µM											
CN(CCCNC(=O)Cc1ccc2ccc3cccc4ccc1c2c34)CCCNc1cc(-c2ccc3ccccc3c2)nc2ccccc12	2.98 µM	3.46 µM	3.32 µM		3.18 µM	3.29 µM	3.28 µM	3.55 µM	2.75 µM	1.45 µM	1.54 µM	1.76 µM	1.91 µM		1.68 µM	1.76 µM	1.82 µM	1.8 µM	1.41 µM	3.02 µM
O=[N+]([O-])c1ccc2c(c1)C(c1ccccc1Cl)=Nc1cn[nH]c1N2	> 25 µM	> 25 µM	> 25 µM	> 25 µM	> 25 µM	> 25 µM	> 25 µM	> 25 µM	> 21.2 µM	0.618 µM	14.6 µM	> 25 µM	> 23.7 µM	4.57 µM	> 25 µM	14.1 µM	> 25 µM	12.7 µM		
